Earlier results in US10948221B1 (priority 2020, dated 2021).

Tested on: rat
Settings: in vivo

Compound | LD50 (oral-rat; mg/kg)
NH4NO3 | 2217 mg/kg
KIO3 | 136 mg/kg
O=N[O-].[Ag+] [AgNO2] | Toxic
[Na+].[O-][Cl+3]([O-])([O-])[O-] [NaClO4] | 2100 mg/kg
MgSO4•7H2O | 2840 mg/kg
AgNO3 | Toxic
Na3PO4 | 7400 mg/kg
O=N[O-].[Na+] [NaNO2] | 180 mg/kg
N#C[O-].[K+] [KCNO] | 841 mg/kg
[K+].[O-][Cl+2]([O-])[O-] [KClO3] | 1870 mg/kg
CN.Cl [CH3NH3Cl] | 1600 mg/kg
BaCl2•2H2O | 118 mg/kg
O=N[O-].[K+] [KNO2] | 250 mg/kg
[Na+].[O-][Cl+2]([O-])[O-] [NaClO3] | 1200 mg/kg
[F-].[Na+] [NaF] | 52 mg/kg
KMnO4 | 1090 mg/kg
K2SO4 [Solute K2SO4] | 6600 mg/kg
[K+].[O-][Cl+3]([O-])([O-])[O-] [KClO4] | 100 mg/kg
